# ChEMBL document CHEMBL5532639, “Heterocyclic pyrimidine derivatives as promising antibacterial agents” (Eur J Med Chem, 2023)
# Key:
# Escherichia coli [1] = assay: Antibacterial activity against Escherichia coli assessed as reduction in bacterial growth by broth microdilution method; format: functional
# Escherichia coli [2] = assay: Antibacterial activity against Escherichia coli assessed as reduction in bacterial growth incubated for 16 to 20 hrs by Mueller-Hinton broth based two-fold serial dilution method; format: functional; details: time 16-20 hrs
# Pseudomonas aeruginosa [3] = assay: Antibacterial activity against Pseudomonas aeruginosa assessed as reduction in microbial growth after 18 hrs by MTT based broth dilution method; format: functional
# Bacillus subtilis [4] = assay: Antibacterial activity against Bacillus subtilis assessed as reduction in bacterial cell viability by well plate method; format: functional
# Klebsiella pneumoniae [5] = assay: Antibacterial activity against Klebsiella pneumoniae assessed as reduction in bacterial growth by broth microdilution method; format: functional
# Streptococcus pyogenes [6] = assay: Antibacterial activity against Streptococcus pyogenes assessed as inhibition of microbial growth by broth micro-dilution method; format: functional
# Escherichia coli [7] = assay: Antibacterial activity Escherichia coli assessed as reduction in bacterial growth; format: functional
# Pseudomonas aeruginosa [8] = assay: Antibacterial activity against Pseudomonas aeruginosa assessed as inhibition of microbial growth by broth micro-dilution method; format: functional
# Escherichia coli [9] = assay: Antibacterial activity against Escherichia coli assessed as inhibition of microbial growth by broth micro-dilution method; format: functional
# [10] = tested on: Staphylococcus epidermidis; assay: Antibacterial activity against Staphylococcus epidermidis assessed as reduction in microbial growth; format: functional
# Streptococcus pyogenes [11] = assay: Antibacterial activity against Streptococcus pyogenes assessed as reduction in microbial growth incubated for 24 hrs by broth micro-dilution method; format: functional
# Staphylococcus aureus [12] = assay: Antibacterial activity against Staphylococcus aureus assessed as inhibition of microbial growth by broth micro-dilution method; format: functional
# Escherichia coli [13] = assay: microbe, parasite or virus in culture; details: ATCC 25922, 24 h
# Description: Antibacterial activity against Escherichia coli ATCC 25922 assessed as reduction in bacterial growth measured after 24 hrs by Mueller-Hinton broth assay
# Bacillus subtilis [14] = assay: Antibacterial activity against Bacillus subtilis ATCC 465 assessed as reduction in bacterial growth measured after 24 hrs by Mueller-Hinton broth assay; format: functional
# Staphylococcus aureus [15] = assay: microbe, parasite or virus in culture; details: ATCC 25923, 24 h
# Description: Antibacterial activity against Staphylococcus aureus ATCC 25923 assessed as reduction in bacterial growth measured after 24 hrs by Mueller-Hinton broth assay
# Pseudomonas aeruginosa [16] = assay: Antibacterial activity against Pseudomonas aeruginosa ATCC 85327 assessed as reduction in bacterial growth measured after 24 hrs by Mueller-Hinton broth assay; format: functional
# Pseudomonas aeruginosa [17] = assay: Antibacterial activity against Pseudomonas aeruginosa assessed as inhibition of bacterial growth incubated for 4 to 20 hrs by resazurin based microplate reader analysis; format: functional; details: time 4-20 hrs
# Bacillus subtilis [18] = assay: Antibacterial activity against Bacillus subtilis assessed as inhibition of bacterial growth incubated for 4 to 20 hrs by resazurin based microplate reader analysis; format: functional; details: time 4-20 hrs
# Escherichia coli [19] = assay: Antibacterial activity against Escherichia coli assessed as inhibition of bacterial growth incubated for 4 to 20 hrs by resazurin based microplate reader analysis; format: functional; details: time 4-20 hrs
# Staphylococcus aureus [20] = assay: Antibacterial activity against Staphylococcus aureus assessed as inhibition of bacterial growth incubated for 4 to 20 hrs by resazurin based microplate reader analysis; format: functional; details: time 4-20 hrs
# Bacillus subtilis [21] = assay: Antibacterial activity against Bacillus subtilis assessed as reduction in bacterial growth incubated for 24 hrs by CLSI protocol based Mueller-Hinton broth assay; format: functional
# Shigella sonnei = assay: Antibacterial activity against Shigella sonnei assessed as inhibition of bacterial growth measured after 18 to 20 hrs by broth microdilution method; format: functional; details: time 18-20 hrs
# Salmonella enterica = assay: Antimicrobial activity against Salmonella enterica assessed as inhibition of microbial growth incubated for 18 hrs by CLSI protocol based Mueller-Hinton broth assay; format: functional
# Morganella morganii [22] = assay: Antibacterial activity against Morganella morganii UM573 assessed as bacterial growth inhibition incubated for 20 to 22 hrs by CLSI based analysis; format: functional; details: time 20-22 hrs
# Edwardsiella tarda = assay: Antimicrobial activity against Edwardsiella tarda assessed as inhibition of microbial growth incubated for 18 hrs by CLSI protocol based Mueller-Hinton broth assay; format: functional
# Vibrio parahaemolyticus = assay: Antibacterial activity against Vibrio parahaemolyticus assessed as reduction in bacterial growth inhibition measured after 24 hrs by Mueller Hinton Agar dilution method; format: functional
# Salmonella typhimurium [23] = assay: Antimicrobial activity against Salmonella typhimurium DT104 assessed as inhibition of microbial growth incubated for 18 hrs by CLSI protocol based Mueller-Hinton broth assay; format: functional, Salmonella enterica subsp. enterica serovar Typhimurium; details: Salmonella enterica
# Plesiomonas shigelloides = assay: Antibacterial activity against Plesiomonas shigelloides assessed as inhibition of bacterial growth measured after 18 to 20 hrs by broth microdilution method; format: functional; details: time 18-20 hrs
# [24] = tested on: Salmonella enterica subsp. enterica serovar Paratyphi B; assay: Antibacterial activity against Salmonella paratyphi B CICC 21495 assessed as reduction in […]; format: functional; details: time lower 48 hrs
# Escherichia coli [25] = assay: Antimicrobial activity against Escherichia coli assessed as inhibition of microbial growth incubated for 18 hrs by CLSI protocol based Mueller-Hinton broth assay; format: functional
# Shigella boydii = assay: Antibacterial activity against Shigella boydii assessed as inhibition of bacterial growth measured after 18 to 20 hrs by broth microdilution method; format: functional; details: time 18-20 hrs
# Salmonella typhimurium [26] = assay: Antibacterial activity against Salmonella typhimurium DT104 assessed as reduction in bacterial growth inhibition measured after 24 hrs by Mueller Hinton Agar dilution method; format: functional, Salmonella enterica subsp. enterica serovar Typhimurium; details: Salmonella enterica
# Pseudomonas aeruginosa [27] = assay: Antimicrobial activity against Pseudomonas aeruginosa assessed as inhibition of microbial growth incubated for 18 hrs by CLSI protocol based Mueller-Hinton broth assay; format: functional
# Enterobacter sp. = assay: Antibacterial activity against Enterobacter sp. assessed as inhibition of bacterial growth; format: functional
# Citrobacter freundii = assay: Antibacterial activity against multidrug-resistant Citrobacter freundii assessed as bacterial growth inhibition incubated for 20 to 22 hrs by CLSI based analysis; format: functional; details: time 20-22 hrs
# Aeromonas hydrophila = assay: Antibacterial activity against Aeromonas hydrophila assessed as inhibition of microbial growth incubated for 24 hrs by CLSI protocol based Mueller-Hinton broth assay; format: functional
# Vibrio cholerae [28] = assay: Antibacterial activity against Vibrio cholerae assessed as inhibition of bacterial growth incubated for 24 hrs by broth microdilution method; format: functional
# Vibrio cholerae [29] = assay: Antibacterial activity against Vibrio cholerae measured after 18 to 20 hrs by broth microdilution method; format: functional; details: time 18-20 hrs
# Shigella flexneri = assay: Antibacterial activity against Shigella flexneri assessed as inhibition of bacterial growth incubated for 24 hrs by broth microdilution method; format: functional
# Salmonella paratyphi = assay: Antibacterial activity against Salmonella paratyphi A CICC 21501 incubated overnight by standard microtiter dilution method; format: functional, Salmonella enterica subsp. enterica serovar Paratyphi A; details: Salmonella enterica
# Enterococcus faecalis = assay: Antimicrobial activity against Enterococcus faecalis assessed as inhibition of microbial growth incubated for 18 hrs by CLSI protocol based Mueller-Hinton broth assay; format: functional
# Staphylococcus aureus [30] = assay: Antimicrobial activity against Staphylococcus aureus assessed as inhibition of microbial growth incubated for 18 hrs by CLSI protocol based Mueller-Hinton broth assay; format: functional
# Klebsiella pneumoniae [31] = assay: Antimicrobial activity against Klebsiella pneumoniae assessed as inhibition of microbial growth incubated for 18 hrs by CLSI protocol based Mueller-Hinton broth assay; format: functional
# Proteus vulgaris [32] = assay: Antimicrobial activity against Proteus vulgaris assessed as microbial growth inhibition incubated for 24 hrs by broth microdilution method; format: functional
# Vibrio cholerae [33] = assay: Antibacterial activity against Vibrio cholerae assessed as reduction in bacterial growth measured after 18 to 20 hrs by broth microdilution method; format: functional; details: time 18-20 hrs
# Morganella morganii [34] = assay: Antibacterial activity against Morganella morganii UM869 incubated for 16 to 18 hrs by broth microdilution method; format: functional; details: time 16-18 hrs
# Providencia rettgeri = assay: Antibacterial activity against Providencia rettgeri assessed as bacterial growth inhibition incubated for 18 hrs by CLSI protocol based Mueller-Hinton broth assay; format: functional
# [35] = tested on: Staphylococcus epidermidis; assay: Antimicrobial activity against Staphylococcus epidermidis assessed as inhibition of microbial growth incubated for 18 hrs by CLSI protocol based Mueller-Hinton broth assay; format: functional
# Staphylococcus aureus [36] = assay: Antibacterial activity against Staphylococcus aureus assessed as bacterial growth inhibition incubated for 24 hrs by CLSI protocol based Mueller-Hinton broth assay; format: functional
# Enterococcus raffinosus = assay: Antibacterial activity against Enterococcus raffinosus assessed as bacterial growth inhibition incubated for 24 hrs by CLSI protocol based Mueller-Hinton broth assay; format: functional
# Bacillus subtilis [37] = assay: Antibacterial activity against Bacillus subtilis assessed as zone of inhibition at 50 microg/ml by cup plate analysis; format: functional; details: read-out: IZ
# Bacillus pumilus = assay: Antibacterial activity against Bacillus pumilus assessed as zone of inhibition at 50 microg/ml by cup plate analysis; format: functional; details: read-out: IZ
# Escherichia coli [38] = assay: Antibacterial activity against Escherichia coli assessed as zone of inhibition at 50 microg/ml by cup plate analysis; format: functional; details: read-out: IZ
# Proteus vulgaris [39] = assay: Antibacterial activity against Proteus vulgaris assessed as zone of inhibition at 50 microg/ml by cup plate analysis; format: functional; details: read-out: IZ
# Bacillus subtilis [40] = assay: Antibacterial activity against Bacillus subtilis 6633 assessed as reduction in bacterial growth; format: functional
# Salmonella typhimurium [41] = assay: Antibacterial activity against Salmonella typhimurium DT104 assessed as reduction in bacterial growth; format: functional, Salmonella enterica subsp. enterica serovar Typhimurium; details: Salmonella enterica
# Escherichia coli [42] = assay: Antibacterial activity against Escherichia coli ATCC 25922 assessed as bacterial growth inhibition; format: functional
# Staphylococcus aureus [43] = assay: Antibacterial activity against Staphylococcus aureus ATCC 3750 assessed as reduction in bacterial growth; format: functional
smiles,measurement,setting,value
O=C(O)c1cn(C2CC2)c2cc(N3CCNCC3)c(F)cc2c1=O [CIPROFLOXACIN],MIC,Escherichia coli [1],25 µg/mL
same,MIC,Escherichia coli [2],25 µg/mL
same,MIC,Pseudomonas aeruginosa [3],22 µg/mL
same,MIC,Bacillus subtilis [4],24 µg/mL
same,MIC,Klebsiella pneumoniae [5],22 µg/mL
same,MIC,Streptococcus pyogenes [6],50 µg/mL
same,MIC,Escherichia coli [7],22 µg/mL
same,MIC,Pseudomonas aeruginosa [8],200 µg/mL
same,MIC,Escherichia coli [9],25 µg/mL
same,MIC,[10],22 µg/mL
same,MIC,Streptococcus pyogenes [11],12.5 µg/mL
same,MIC,Staphylococcus aureus [12],50 µg/mL
N#Cc1nc2[nH]c(=O)[nH]c(=O)c2c(-c2ccc(Cl)cc2)c1N,MIC,Escherichia coli [13],512 µg/mL
same,MIC,Bacillus subtilis [14],8 µg/mL
same,MIC,Staphylococcus aureus [15],2 µg/mL
same,MIC,Pseudomonas aeruginosa [16],512 µg/mL
Cc1nc(NC(=O)c2ccncc2)c2c(C(F)(F)F)cc(-c3ccccc3)nc2n1,MIC,Pseudomonas aeruginosa [17],50 µg/mL
same,MIC,Bacillus subtilis [18],12.5 µg/mL
same,MIC,Escherichia coli [19],50 µg/mL
same,MIC,Staphylococcus aureus [20],12.5 µg/mL
COc1cc(Cc2cnc(N)nc2N)cc(OC)c1OC [TRIMETHOPRIM],MIC,Bacillus subtilis [21],5000 µg/mL
same,MIC,Shigella sonnei,9.76 µg/mL
same,MIC,Salmonella enterica,4.88 µg/mL
same,MIC,Morganella morganii [22],156 µg/mL
same,MIC,Edwardsiella tarda,312 µg/mL
same,MIC,Vibrio parahaemolyticus,2.44 µg/mL
same,MIC,Salmonella typhimurium [23],4.88 µg/mL
same,MIC,Plesiomonas shigelloides,4.88 µg/mL
same,MIC,[24],9.76 µg/mL
same,MIC,Escherichia coli [25],19.5 µg/mL
same,MIC,Shigella boydii,9.76 µg/mL
same,MIC,Salmonella typhimurium [26],> 5000 µg/mL
same,MIC,Pseudomonas aeruginosa [27],5000 µg/mL
same,MIC,Enterobacter sp.,156 µg/mL
same,MIC,Citrobacter freundii,19.5 µg/mL
same,MIC,Aeromonas hydrophila,1250 µg/mL
same,MIC,Vibrio cholerae [28],39.1 µg/mL
same,MIC,Vibrio cholerae [29],1.22 µg/mL
same,MIC,Shigella flexneri,156 µg/mL
same,MIC,Salmonella paratyphi,156 µg/mL
same,MIC,Enterococcus faecalis,78.1 µg/mL
same,MIC,Staphylococcus aureus [30],> 5000 µg/mL
same,MIC,Klebsiella pneumoniae [31],5000 µg/mL
same,MIC,Proteus vulgaris [32],156 µg/mL
same,MIC,Vibrio cholerae [33],5000 µg/mL
same,MIC,Morganella morganii [34],156 µg/mL
same,MIC,Providencia rettgeri,2500 µg/mL
same,MIC,[35],> 5000 µg/mL
COc1ccc(-c2nc(-c3ccccc3)nc3[nH]nc(N)c23)cc1,MIC,Staphylococcus aureus [36],4.2 µg/mL
same,MIC,Enterococcus raffinosus,14.2 µg/mL
CN(C)c1ccc(-c2cc(-c3ccsc3)nc(N)n2)cc1,zone of inhibition at 50 µg/mL,Bacillus subtilis [37],15 mm
same,zone of inhibition at 50 µg/mL,Bacillus pumilus,12 mm
same,zone of inhibition at 50 µg/mL,Escherichia coli [38],11 mm
same,zone of inhibition at 50 µg/mL,Proteus vulgaris [39],12 mm
CC1(C)S[C@@H]2[C@H](NC(=O)Cc3ccccc3)C(=O)N2[C@H]1C(=O)O [PENICILLIN G],zone of inhibition at 50 µg/mL,Bacillus subtilis [37],25 mm
same,MIC,Staphylococcus aureus [36],24.4 µg/mL
same,MIC,Bacillus subtilis [40],22 µg/mL
same,MIC,Salmonella typhimurium [41],5 µg/mL
same,MIC,Enterococcus raffinosus,93.5 µg/mL
same,MIC,Escherichia coli [42],5 µg/mL
same,zone of inhibition at 50 µg/mL,Bacillus pumilus,29 mm
same,zone of inhibition at 50 µg/mL,Escherichia coli [38],26 mm
same,MIC,Staphylococcus aureus [43],6 µg/mL
same,zone of inhibition at 50 µg/mL,Proteus vulgaris [39],28 mm
Nc1nc(-c2ccc(F)cc2)cc(-c2ccsc2)n1,zone of inhibition at 50 µg/mL,Bacillus subtilis [37],17 mm
same,zone of inhibition at 50 µg/mL,Bacillus pumilus,14 mm
same,zone of inhibition at 50 µg/mL,Escherichia coli [38],13 mm
same,zone of inhibition at 50 µg/mL,Proteus vulgaris [39],14 mm
